# Counter-ions that a name gives are not always drawn. Like-named read-outs stand apart in the source and are kept apart here.
# Experiments:
# [1] = Percent complex determination, samarium complexes (Sephadex C-25 cation exchange); assay type: physicochemical; conditions: for % Complex (10:1), Sm / % Complex, Sm: samarium; for % Complex (10:1), Sm: ligand/metal 10:1; for % Complex, Sm: ligand/metal ratio about 50:1 (** footnote)
# Procedure: (§1) A disposable 10 ml plastic (Biorad) column was filled with 1 to 2 ml of water-swelled Sephadex™ C-25 cation exchange resin. The water was pressure eluted to the top of the resin. Fifteen μl of the complex (or more if counts were low) were added to the top of the resin. This was followed by 2 ml of 4:1 (V:V) isotonic saline:conc. ammonium hydroxide solution as an eluent which was allowed to drip into a counting tube. This was also pressure eluted to the top of the resin. An additional 2 ml of the eluent were added and the column pressure eluted to remove all liquid. The dried resin was then placed in a third counting tube and the three tubes counted on a NaI well counter using a Canberra multichannel analyzer linked to a computer. The percent complex was determined by dividing the number of counts in the two elutions by the total counts in the elutions plus the column, all times 100.
# Percent complex determination was made in the same manner as for the yttrium complex.
# [2] = In vivo biodistribution of chelates in rats (% dose in organs); conditions: rat, 2 hours after i.v. injection
# [3] = Inertness of samarium complex versus pH; assay type: physicochemical; conditions: Sm
# Procedure: as §1, with “100. By this method, uncomplexed yttrium was retained on the column.” for “100.”
# (§2) One portion was treated with 1-2 μl portions of 0.1N hydrochloric acid until the pH was lowered and the other portion was treated with 0.1N sodium hydroxide to bring the pH up. The complexes were allowed to set for 5-10 minutes at each pH change, then they were sampled to determine the percent complexation at that pH by the method described for Examples 16 through 33.
# as §2, with “of 1.0N” for “of 0.1N”, “with 0.1N, 1.0N and 50 weight %” for “with 0.1N”, “for about 5” for “for 5-10”
# [4] = Complex study: percent yttrium complex after addition of excess metal (lability); assay type: physicochemical
# Procedure: as §1, with “100. By this method, uncomplexed yttrium was retained on the column.” for “100.”
# The 1:1 complex of yttrium with 1-(p-aminobenzyl)diethylenetriaminepentaacetic acid (ABDTPA), a well known bifunctional chelant used in the literature, and with the ligand of Example 2 (Now Ex. XVI) and Example 12 (now Ex. XVII) were prepared using the techniques described earlier. Several 100 microliter aliquots were then withdrawn into separate centrifuge tubes. Excess metal was added such that the total volume change is minimized and the time noted. One-half hour after metal addition, the percent complex was determined by the Sephadex™ C-25 method and this was compared to the original amount of complex. The percent complex versus added metal gives an indication as to the lability of the ligand-metal complex. Results are given below and are compared to the EDTA-yttrium complex.
# [5] = complexes with Sc-46, Y-91, La-140 and Sm-153; chelant to metal 5:1; cited from earlier work
# [6] = Percent complex determination, yttrium complexes (Sephadex C-25 cation exchange); assay type: physicochemical; conditions: for % Complex (10:1), Y: ligand/metal 10:1, pH 7.4
# Procedure: Complexes were made by preparing a 0.0003M yttrium solution in water. (YCl3.6H2 O, 303.26 g/mole; Y(OAc)3, 12.1% H2 O). Radioactive YCl3 (Oakridge National Laboratories) was added to give the desired number of counts. Ten μl of ligand solution (at 0.03M) were added to 990 μl of the Y solution, giving a ligand-to-metal ratio of 1:1. (Ten times the amount of ligand solution was used for a 10:1 ligand to metal ratio.) The pH was then adjusted to 7.4 using microliter quantities of hydrochloric acid or sodium hydroxide. The solution was then tested for the amount of complexed yttrium using the cation exchange method given below.
# as §1, with “100. By this method, uncomplexed yttrium was retained on the column.” for “100.”
# [7] = rat, in vivo, 120 min; for % Injected Dose in Liver: iv
# [8] = patients with metastatic bone lesions; cited from earlier work
# [9] = metal/ligand molar ratio 500, one-half hour after metal addition
# [10] = Sm complex, ligand/metal about 300:1 (Examples D and E)
molecule,measurement,setting,value
2-[(2-[(2-[(2-{[BIS(CARBOXYMETHYL)]AMINO}ETHYL)(CARBOXYMETHYL)AMINO]ETHYL)(CARBOXYMETHYL)AMINO]ETHYL)(CARBOXYMETHYL)AMINO]-2-[5-ACETAMIDO-2-(CARBOXYMETHYLOXY)PHENYL]ETHANOIC ACID AND 2[(2-[(2-{[BIS(CARBOXYMETHYL)]AMINO}ETHYL)(CARBOXY-METHYL)AMINO]ETHYL)(2-{[BIS(CARBOXYMETHYL)]AMINO}-ETHYL)AMINO]-2-[5-ACETAMIDO-2-(CARBOXYMETHYLOXY)PHENYL]-ETHANOIC ACID [Example 9],"% Complex (10:1), Sm",[1],> 99%
same,% Injected Dose in Liver,"[2]; Sm complex, ligand/metal 10:1",2.8%
2-[BIS(2-{[(BIS(CARBOXYMETHYL)]AMINO}ETHYL)AMINO]-2-[5-AMINO-2-(CARBOXYMETHYLOXY)PHENYL]ETHANOIC ACID AND 2-[{2-[(2-{[BIS(CARBOXYMETHYL)]AMINO}ETHYL)(CARBOXYMETHYL)AMINO]ETHYL}(CARBOXYMETHYL)AMINO]-2-[5-AMINO-2-(CARBOXYMETHYLOXY)-PHENYL]ETHANOIC ACID [Example 7],percent Sm complexed,"[1]; as prepared, pH adjusted to about 7.5",100%
same,"% Complex, Sm",[1],96%
same,% Complexed,"[3]; pH 1, 5-10 minutes",98%
same,% Complexed,"[3]; pH 2, 5-10 minutes",100%
same,% Complexed,"[3]; pH 3, 5-10 minutes",100%
same,% Complexed,"[3]; pH 4, 5-10 minutes",100%
same,% Complexed,"[3]; pH 5, 5-10 minutes",100%
same,% Complexed,"[3]; pH 7, 5-10 minutes",100%
same,% Complexed,"[3]; pH 9, 5-10 minutes",100%
same,% Complexed,"[3]; pH 11, 5-10 minutes",100%
same,% Complexed,"[3]; pH 13, 5-10 minutes",100%
2-[bis(2-{[(bis(carboxymethyl)]amino}ethyl)amino]-2-[5-acetamido-2-(carboxymethyloxy)phenyl]ethanoic acid and 2-[{2-[(2-{[bis(carboxymethyl)]amino}ethyl)(carboxymethyl)amino]ethyl}(carboxymethyl)amino]-2-[5-acetamido-2-(carboxymethyloxy)-phenyl]ethanoic acid [Example 6],"% Complex (10:1), Sm",[1],> 99%
same,% Injected Dose in Liver,"[2]; Sm complex, ligand/metal 10:1",0.38%
"O=C(O)CN(CCN(CC(=O)O)CC(=O)O)CC(=O)O [EDTA, ethylenediaminetetraacetic acid]",% Complex,"[4]; metal/ligand molar ratio 250, one-half hour after metal addition",48%
same,% Complex,[4]; [9],16%
same,organ distribution of radioactivity,[5],"high concentrations of radioactivity were observed in the liver, spleen, kidney, lung and bone"
same,% Injected Dose in Liver,"[2]; Sm complex, ligand/metal 5:1",8.4%
same,% Injected Dose in Liver,[2]; [10],4.4%
"CC(=O)Nc1ccc(O)c(C(NCCN(CC(=O)O)CC(=O)O)C(=O)O)c1 (stereo not drawn) [Example 1, 2-[(2-{[bis(carboxymethyl)]amino}ethyl)amino]-2-(5-acetamido-2-hydroxyphenyl)ethanoic acid]","% Complex (10:1), Y",[6],98%
same,% dose in the blood,[7],0.57%
same,% dose in the bone,[7],56.1%
same,% dose in the muscle,[7],0.78%
same,% dose in the spleen,[7],0.03%
same,% Injected Dose in Liver,[7],0.87%
"CC(=O)Nc1ccc(OCC(=O)O)c(C(C(=O)O)N(CCN(CC(=O)O)CC(=O)O)CC(=O)O)c1 (stereo not drawn) [Example 2, 2-[(2-{[bis(carboxymethyl)]amino}ethyl)(carboxymethyl)amino]-2-[5-acetamido-2-(carboxymethyloxy)phenyl]ethanoic acid]","% Complex (10:1), Y",[6],> 99%
same,"% Complex (10:1), Sm",[1],> 99%
same,% Complex,[4]; [9],75%
same,% Injected Dose in Liver,[7],0.22%
"Nc1ccc(OCC(=O)O)c(C(C(=O)O)N(CCN(CC(=O)O)CC(=O)O)CC(=O)O)c1 (stereo not drawn) [Example 3, 2-[(2-{[BIS(CARBOXYMETHYL)]AMINO}ETHYL)(CARBOXYMETHYL)AMINO]-2-[5-AMINO-2- (CARBOXYMETHLOXY)PHENYL]ETHANOIC ACID, PENTA SODIUM SALT]","% Complex (10:1), Y",[6],> 99%
same,% Injected Dose in Liver,[7],0.22%
"CC(=O)Nc1ccc(O)c(C(C(=O)O)N(CC#N)CCN(CC(=O)O)CC(=O)O)c1 (stereo not drawn) [Example 4, 2-[(2-{[bis(carboxymethyl)]amino}ethyl)(cyanomethyl)amino]-2-(5-acetamido-2-hydroxyphenyl)ethanoic acid]","% Complex (10:1), Y",[6],> 99%
same,% Injected Dose in Liver,[7],1.4%
"Nc1ccc(O)c(C(C(=O)O)N(CCN(CC(=O)O)CC(=O)O)CC(=O)O)c1 (stereo not drawn) [Example 5, 2-[(2-{[BIS(CARBOXYMETHYL)]AMINO}ETHYL)(CARBOXYMETHYL)AMINO]-2-(5-AMINO-2- HYDROXYPHENYL)ETHANOIC ACID]","% Complex (10:1), Y",[6],99%
same,% Injected Dose in Liver,[7],0.38%
"Nc1ccc(OCC(=O)O)c(C(C(=O)O)N(CCN(CCN(CC(=O)O)CC(=O)O)CC(=O)O)CC(=O)O)c1 (stereo not drawn) [Example 8, 2-[{2-[(2-{[BIS(CARBOXYMETHYL)]-AMINO}ETHYL)(CARBOXYMETHYL)AMINO]ETHYL}(CARBOXYMETHYL)AMINO]-2-[5-AMINO-2-(CARBOXYMETHYLOXY)PHENYL]ETHANOIC ACID]","percent complexation, Sm","[1]; as prepared, pH adjusted to about 7",96%
same,"% Complex, Sm",[1],> 99%
same,% Complexed,"[3]; pH 1, about 5 minutes",91%
same,% Complexed,"[3]; pH 2, about 5 minutes",88%
same,% Complexed,"[3]; pH 3, about 5 minutes",92%
same,% Complexed,"[3]; pH 5, about 5 minutes",96%
same,% Complexed,"[3]; pH 7, about 5 minutes",96%
same,% Complexed,"[3]; pH 9, about 5 minutes",99%
same,% Complexed,"[3]; pH 12, about 5 minutes",98%
same,% Complexed,"[3]; pH 13, about 5 minutes",99%
CC(=O)Nc1cc(CN(CCN(CC(=O)O)CC(=O)O)CC(=O)O)c(O)c(CN(CCN(CC(=O)O)CC(=O)O)CC(=O)O)c1 [Example 11],"% Complex (10:1), Y",[6],99%
same,"% Complex, Y",[6]; ligand/metal ratio about 1:1 (* footnote),98%
"CC(=O)Nc1cc(CN(CCN(CC(=O)O)CC(=O)O)CC(=O)O)c(O)c(CN(CC(=O)O)CC(=O)O)c1 [Example 15, 2-({[BIS(CARBOXYMETHYL)]AMINO}METHYL)-6-{[({[BIS(CARBOXYMETHYL)]AMINO}ETHYL)(CARBOXYMETHYL)AMINO]METHYL}-4-(ACETAMIDO)PHENOL]","% Complex (10:1), Y",[6],99%
same,% Injected Dose in Liver,[7],0.37%
"CC(=O)Nc1ccc(O)c(CN(CCN(CC(=O)O)Cc2cc(NC(C)=O)ccc2O)CC(=O)O)c1 [Example U, N,N'-DI(2-HYDROXY, 5-ACETAMIDOBENZYL)ETHYLENEDIAMINE-N,N'-DIACETIC ACID, reference compound]",% Injected Dose in Liver,"[2]; Sm complex, comparative, ligand/metal ratio not stated",12%
"Nc1ccc(O)c(C(NCCNC(C(=O)O)c2cc(N)ccc2O)C(=O)O)c1 (stereo not drawn) [Example X, ethylenediaminedi(2-hydroxy-5-aminophenyl)acetic acid, reference compound]",% Injected Dose in Liver,[7],24%
"O=C(O)CN(CC(=O)O)CC(=O)O [NTA, nitrilotri-acetic acid, reference compound]",organ distribution of radioactivity,[5],"high concentrations of radioactivity were observed in the liver, spleen, kidney, lung and bone"
same,% Injected Dose in Liver,[2]; [10],8.6%
"[Cl][Sm]([Cl])[Cl] [SmCl3, samarium chloride, reference compound]",% Injected Dose in Liver,[2]; samarium chloride in unchelated form,39%
[89Sr] [Strontium-89],blood levels,[8],high blood levels
same,lesion to normal bone ratios,[8],low lesion to normal bone ratios

# Source: patent publication US5696239A (The Dow Chemical Company, priority 1995, dated 1997)
